Experimental data published in ChEMBL document CHEMBL3120092, “Discovery of GS-9669, a thumb site II non-nucleoside inhibitor of NS5B for the treatment of genotype 1 chronic hepatitis C infection” (J Med Chem, 2014).

Columns and labels:
[1] = Cytotoxicity against human HuH7 cells after 3 days by Cell Titre Glo assay; format: cell-based, Huh-7
[2] = system: Hepatitis C virus; experiment: Antiviral activity against Hepatitis C virus H77 genotype 1a infected in human HuH7 cells assessed as intrinsic antiviral potency after 72 hrs by luciferase reporter gene assay; format: functional, organism-based, Hepacivirus hominis; details: genotype 1a H77, Huh-7, 72 h
[3] = system: Hepatitis C virus; experiment: Antiviral activity against Hepatitis C virus H77 genotype 1a infected in human HuH7 cells assessed as observed antiviral potency after 72 hrs by luciferase reporter gene assay; format: functional, organism-based, Hepacivirus hominis; details: genotype 1a H77, Huh-7, 72 h
[4] = system: Hepatitis C virus; experiment: Antiviral activity against Hepatitis C virus Con1 genotype 1b infected in human HuH7 cells after 72 hrs by luciferase reporter gene assay; format: functional, organism-based, Hepacivirus hominis; details: isolate Con1, Huh-7, 72 h
[5] = Fraction unbound in cell culture medium at 2 uM at pH 7.4 by equilibrium dialysis method; format: ADME
[6] = Cytotoxicity against human MT4 cells after 5 days by Cell Titre Glo assay; format: cell-based
[7] = Mean residence time in Sprague-Dawley rat at 0.5 mg/kg, iv; format: ADME, organism-based; parameters: dose 0.5 mg/kg, route intravenous; details: in vivo
[8] = Intrinsic cytotoxicity against human MT4 cells after 5 days by Cell Titre Glo assay; format: cell-based
[9] = Lipophilicity, log D of the compound by chromatography; format: physicochemical
[10] = system: Hepatitis C virus; experiment: Antiviral activity against Hepatitis C virus H77 genotype 1a infected in human HuH7 cells assessed as plasma adjusted antiviral potency after 72 hrs by luciferase reporter gene assay; format: functional, organism-based, Hepacivirus hominis; details: genotype 1a H77, Huh-7, Plasma

| Compound | CC50 at 72 h [1] | EC50 [2] | EC50 [3] | EC50 [4] | fraction unbound at 2 µM [5] | CC50 at 120 h [6] | MRT [7] | CC50 at 120 h [8] | chromatographic logD [9] | EC50 [10] |
| --- | --- | --- | --- | --- | --- | --- | --- | --- | --- | --- |
| C[C@@H](CCO)N(c1cc(C#CC(C)(C)C)sc1C(=O)O)C(=O)[C@H]1CC[C@H](C)CC1 | ≥ 20 µM | 0.0033 µM | 0.015 µM | 0.007 µM | 0.22 | > 20 µM | – | – | – | – |
| CC(C)(C)C#Cc1cc(N(CCO)C(=O)[C@H]2CC[C@H](C)CC2)c(C(=O)O)s1 | ≥ 20 µM | – | 0.304 µM | 0.078 µM | – | > 20 µM | – | – | – | – |
| CC(C)(C)C#Cc1cc(N(C(=O)[C@H]2CC[C@H](C)CC2)C2CCN(S(C)(=O)=O)CC2)c(C(=O)O)s1 | – | 0.0087 µM | 0.051 µM | – | 0.17 | > 20 µM | – | – | – | – |
| CC(C)(C)C#Cc1cc(N(C(=O)[C@H]2CC[C@H](C)CC2)C2CCN(C(=O)c3cccnc3)CC2)c(C(=O)O)s1 | – | 0.043 µM | 0.183 µM | – | 0.23 | > 20 µM | – | – | – | – |
| CON=C1CCC(N(c2cc(C#CC(C)(C)C)sc2C(=O)O)C(=O)[C@H]2CC[C@H](C)CC2)CC1 (some centres not stated) | – | 0.0061 µM | 0.088 µM | – | 0.07 | > 20 µM | – | – | – | – |
| CC(C)(C)C#Cc1cc(N(C(=O)[C@H]2CC[C@H](C)CC2)[C@H]2C[C@@H](Oc3cccnc3)C2)c(C(=O)O)s1 | – | 0.0064 µM | 0.156 µM | – | 0.04 | > 20 µM | – | – | – | – |
| C[C@@H](CCOc1cccnc1)N(c1cc(C#CC(C)(C)C)sc1C(=O)O)C(=O)[C@H]1CC[C@H](C)CC1 | – | 0.0024 µM | 0.102 µM | – | 0.02 | > 20 µM | – | – | – | – |
| CC(C)(C)C#Cc1cc(N(C(=O)[C@H]2CC[C@H](C)CC2)[C@H]2CC[C@@H](Oc3cccnc3)CC2)c(C(=O)O)s1 | – | 0.0012 µM | 0.045 µM | – | – | > 20 µM | 0.2 h | – | – | – |
| CC(C)(C)C#Cc1cc(N(C(=O)[C@H]2CC[C@H](C)CC2)[C@H]2CC[C@H](Oc3ccncn3)CC2)c(C(=O)O)s1 | – | 0.0028 µM | 0.075 µM | – | – | > 20 µM | 7.1 h | 0.599 µM | 2.3 | 1.39 µM |
| CC(C)(C)C#Cc1cc(N(C(=O)[C@H]2CC[C@H](C)CC2)[C@H]2CC[C@H](Oc3ccc(=O)[nH]n3)CC2)c(C(=O)O)s1 | – | 0.0035 µM | 0.039 µM | – | – | > 20 µM | 1.6 h | 1.48 µM | 2 | 0.285 µM |
| CC(C)(C)C#Cc1cc(N(C(=O)[C@H]2CC[C@H](C)CC2)[C@H]2CC[C@@H](Oc3ccc(O)nn3)CC2)c(C(=O)O)s1 | – | 0.0026 µM | 0.024 µM | – | – | > 20 µM | 0.5 h | 2.17 µM | 1.8 | 0.277 µM |
| CC(C)(C)C#Cc1cc(N(C(=O)[C@H]2CC[C@H](C)CC2)[C@H]2CC[C@H](OC3CCOC3)CC2)c(C(=O)O)s1 (some centres not stated) | – | 0.0043 µM | 0.055 µM | – | – | > 20 µM | 3.5 h | 3.07 µM | 2.3 | 0.749 µM |
| CC(C)(C#Cc1cc(N(C(=O)[C@H]2CC[C@H](C)CC2)[C@H]2CC[C@H](Oc3ccc(O)nn3)CC2)c(C(=O)O)s1)C(F)(F)F | – | 0.0049 µM | 0.051 µM | – | – | > 20 µM | – | – | – | 0.516 µM |
| C[C@H]1CC[C@H](C(=O)N(c2cc(C#CC3(C(F)(F)F)CC3)sc2C(=O)O)[C@H]2CC[C@H](Oc3ccc(O)nn3)CC2)CC1 | – | 0.0069 µM | 0.061 µM | – | – | > 20 µM | – | – | – | 0.751 µM |
| C[C@H]1CC[C@H](C(=O)N(c2cc(C#CC3(C(F)(F)F)CCC3)sc2C(=O)O)[C@H]2CC[C@H](Oc3ccc(O)nn3)CC2)CC1 | – | 0.0027 µM | 0.12 µM | – | – | > 20 µM | – | – | – | 0.607 µM |
| CC(C)(C)C#Cc1cc(N(C(=O)[C@H]2CC[C@H](C)CC2)[C@H]2CC[C@H](OC3COC3)CC2)c(C(=O)O)s1 | – | 0.0043 µM | – | – | – | > 20 µM | – | 8.35 µM | 2.6 | 0.102 µM |

| Compound | CC50 at 72 h [1] | EC50 [2] | EC50 [3] | EC50 [4] | fraction unbound at 2 µM [5] | CC50 at 120 h [6] | MRT [7] | CC50 at 120 h [8] | chromatographic logD [9] | EC50 [10] |
| --- | --- | --- | --- | --- | --- | --- | --- | --- | --- | --- |
| CC(C)(C)C#Cc1cc(N(C(=O)[C@H]2CC[C@H](C)CC2)[C@H]2CC[C@H](OC3CCOCC3)CC2)c(C(=O)O)s1 | – | 0.0024 µM | – | – | – | > 20 µM | – | 1.99 µM | 2.4 | 1.83 µM |
| CC(C)(C#Cc1cc(N(C(=O)[C@H]2CC[C@H](C)CC2)[C@H]2CC[C@H](OC3CCOC3)CC2)c(C(=O)O)s1)CCO (some centres not stated) | – | 0.0061 µM | – | – | – | > 20 µM | 0.4 h | 31.3 µM | 1.6 | 0.167 µM |
| C[C@@H]1CC[C@@H](C(=O)N(c2cc(C#CC(C)(C)C)sc2C(=O)O)[C@H]2CC[C@H](OC3CCOC3)CC2)[C@@H](O)C1 (some centres not stated) | – | 0.002 µM | – | – | – | > 20 µM | 1.9 h | 11.6 µM | 2.2 | 0.138 µM |
| CC(C)(C)C#Cc1cc(N(C(=O)[C@H]2CC[C@H](C)CC2)[C@H]2CC[C@@](O)(CO[C@H]3CCOC3)CC2)c(C(=O)O)s1 | – | 0.0043 µM | – | – | – | > 20 µM | 0.2 h | 18.1 µM | – | 0.191 µM |
| CC(C)N(C(=O)C1CCCCC1)c1cc(C#CC(C)(C)C)sc1C(=O)O | – | 0.5 µM | 2.8 µM | – | 0.18 | > 20 µM | – | – | – | – |
| CC(C)N(c1cc(C#CC(C)(C)C)sc1C(=O)O)C(=O)[C@H]1CC[C@H](Cl)CC1 | – | 0.044 µM | 0.315 µM | – | 0.14 | > 20 µM | – | – | – | – |
| CC(C)N(c1cc(C#CC(C)(C)C)sc1C(=O)O)C(=O)[C@H]1CC[C@H](CF)CC1 | – | 0.031 µM | 0.169 µM | – | 0.18 | > 20 µM | – | – | – | – |
| CC(C)N(C(=O)C1CCC(F)(F)CC1)c1cc(C#CC(C)(C)C)sc1C(=O)O | – | 12.8 µM | 32.1 µM | – | 0.4 | > 20 µM | – | – | – | – |
| CC(C)N(C(=O)C1CCCCCC1)c1cc(C#CC(C)(C)C)sc1C(=O)O | – | 0.225 µM | 2.02 µM | – | 0.11 | > 20 µM | – | – | – | – |
| CC(C)N(C(=O)[C@H]1[C@@H]2CCCC[C@@H]21)c1cc(C#CC(C)(C)C)sc1C(=O)O | – | 0.206 µM | 4.68 µM | – | 0.04 | > 20 µM | – | – | – | – |
| CC(C)N(C(=O)[C@H]1CC[C@@H]2C[C@@H]2CC1)c1cc(C#CC(C)(C)C)sc1C(=O)O | – | 0.483 µM | 6.19 µM | – | 0.08 | > 20 µM | – | – | – | – |
| CC(C)N(C(=O)[C@@H]1CC[C@@H]2C[C@@H]2CC1)c1cc(C#CC(C)(C)C)sc1C(=O)O | – | 0.088 µM | 1.62 µM | – | 0.05 | > 20 µM | – | – | – | – |
| CC1CC=C(C(=O)N(c2cc(C#CC(C)(C)C)sc2C(=O)O)C(C)C)CC1 (configuration not stated) | – | 0.065 µM | 0.773 µM | – | 0.08 | > 20 µM | – | – | – | – |
| CC1=CC[C@@H](C(=O)N(c2cc(C#CC(C)(C)C)sc2C(=O)O)C(C)C)CC1 | – | 0.0037 µM | 0.045 µM | – | 0.08 | > 20 µM | – | – | – | – |
| CCC[C@]1(CC(=O)O)OCCc2c1[nH]c1c(C)ccc(C#N)c21 | – | – | – | – | – | > 20 µM | – | – | – | – |
